Several values for one entry are separate records, joined by “and”; a condition that tells them apart may be missing. Equal entries are not always repeated. Activity calls are given as the source filed them.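 The calls were made as follows: active = signal-decreasing dose-response curve whose fitted half-maximal concentration is at or below twice the highest valid tested dose; inconclusive = flat fit at 30 to 70% signal loss, or poor fit; inactive = the rest.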
Tested on: NIH3T3/HeLa viability, CellTiter-Glo ATP luminescence, 24 h
Assay: cell viability loss after compound exposure – 24 h, luminescence, cherry-picked samples, cytotoxicity control for PDI inhibitor project, dose response (AID 624285)
Settings: not given

Question: For `O=C(NC(Cc1c[nH]c2ccccc12)C(=O)N/N=C/c1cccnc1)c1cccs1` (stereo not drawn), which AC50 is on record?
Answer: > 70 µM (inactive)

Question: With `CCOC(=O)c1c(CN2CCN(C)CC2)n(C)c2cc(Br)c(OC)cc12` as the compound, how does the AC50 read?
Answer: 22.2 µM

Question: With `COc1cc(C2C(C#N)=C(N)Oc3cc(O)ccc32)cc(OC)c1OC` (stereo not drawn) as the compound, how does the AC50 read?
Answer: > 70 µM (inactive)

Question: For `O=C(CCc1nc(-c2ccccc2F)no1)Nc1ccc(Oc2ccccc2)cc1`, which AC50 is on record?
Answer: > 70 µM (inactive)

Question: For `COc1c(Br)cc(C(N)=O)cc1OCc1ccccc1`, which AC50 is on record?
Answer: > 70 µM (inactive)

Question: Which AC50 does the source give for `CN(c1ccccc1)S(=O)(=O)c1cc(C(=O)N2CCN(c3ncccn3)CC2)ccc1Cl` here?
Answer: > 70 µM (inactive)

Question: With `Cc1ccc(NC(=O)CSC(C)C(=O)OCc2cc(=O)oc3cc(O)ccc23)cc1` (stereo not drawn) as the compound, how does the AC50 read?
Answer: > 70 µM (inactive)

Question: For `Cc1nnc(SCc2cc(=O)oc3cc(O)ccc23)n1Cc1ccccc1`, which AC50 is on record?
Answer: > 70 µM (inactive)

Question: With `CC1(c2ccc3ccccc3c2)NC(=O)N(CC(=O)Nc2cccc(S(=O)(=O)N3CCOCC3)c2)C1=O` (stereo not drawn) as the compound, how does the AC50 read?
Answer: > 70 µM (inactive)

Question: With `Cc1ccc(C)c(N2CCN(S(=O)(=O)c3ccc4c(c3)OCCO4)CC2)c1` as the compound, how does the AC50 read?
Answer: > 70 µM (inactive)

Question: With `CCOc1cc(N2CCOCC2)c(OCC)cc1NC(=O)COC(=O)[C@H](Cc1c[nH]c2ccccc12)NC(C)=O` as the compound, how does the AC50 read?
Answer: > 70 µM (inactive)

Question: Which AC50 does the source give for `COc1cc2cc(C(=O)N3CC(COS(C)(=O)=O)c4ccc(O)cc43)[nH]c2c(OC)c1OC` (stereo not drawn) here?
Answer: 0.0396 µM

Question: With `CCCN(CCC)S(=O)(=O)c1ccc(C(=O)Nc2nnc(COC)o2)cc1` as the compound, how does the AC50 read?
Answer: > 70 µM (inactive)

Question: With `O=C(Nc1ccccc1N1CCCC1)c1cc(Cl)ccc1Cl` as the compound, how does the AC50 read?
Answer: > 70 µM (inactive)

Question: Which AC50 does the source give for `CN(C)CCCN(C(=O)c1ccc(S(=O)(=O)N2CCCc3ccccc32)cc1)c1nc2ccc(F)cc2s1` here?
Answer: 18.2 µM

Question: Which AC50 does the source give for `COC1/C=C/C=C(\C)Cc2cc(O)c(Cl)c(c2)N(C)C(=O)CC(OC(=O)C(C)C)C2(C)OC2C(C)C2CC1(O)NC(=O)O2` (stereo not drawn) here?
Answer: > 70 µM (inactive)

Tested on: not listed separately
Assay: as above
Settings: NIH3T3/HeLa viability, CellTiter-Glo ATP luminescence, 24 h; at 35 µM (top of the series)

Question: For `CC1(C(=O)NS(=O)(=O)c2ccccc2Cl)CCN1C(=O)c1ccccc1CCc1ccccc1` (stereo not drawn), which activity change, negative = cytotoxicity is on record?
Answer: -8.92% (inactive)

Question: For `CN(C)S(=O)(=O)c1ccc(Cl)c(NC(=O)CSc2nnnn2-c2ccc(O)cc2)c1`, which activity change, negative = cytotoxicity is on record?
Answer: -11.7% (inactive)

Question: Which activity change, negative = cytotoxicity does the source give for `C[C@@H]1CN([C@@H](C)CO)C(=O)c2cccc(NS(C)(=O)=O)c2O[C@H]1CN(C)Cc1ccc(Oc2ccccc2)cc1` here?
Answer: -11.5% (inactive) and -6.47% (inactive)

Question: With `CCOC(=O)c1c(CN2CCN(CCO)CC2)n(C)c2cc(Br)c(OC)cc12` as the compound, how does the activity change, negative = cytotoxicity read?
Answer: -17.2% (inactive)

Question: For `CCOc1ccc(NC(=O)CN(C)C(=O)c2cc(C)nc3ccccc23)cc1OCC`, which activity change, negative = cytotoxicity is on record?
Answer: -13.4% (inactive)

Question: With `C[C@H](CO)N1C[C@H](C)[C@@H](CN(C)S(=O)(=O)c2ccccc2)Oc2ccc(NC(=O)Cc3cn(C)c4ccccc34)cc2C1=O` as the compound, how does the activity change, negative = cytotoxicity read?
Answer: -1.88% (inactive)

Question: With `CCOC(=O)c1c(CN2CCOCC2)n(-c2ccccc2)c2cc(Br)c(OC)cc12` as the compound, how does the activity change, negative = cytotoxicity read?
Answer: -12.1% (inactive)

Question: Which activity change, negative = cytotoxicity does the source give for `CN(C)C(=O)CSc1nnc([C@H](Cc2ccccc2)NC(=O)OC(C)(C)C)o1` here?
Answer: -9.45% (inactive)

Question: Which activity change, negative = cytotoxicity does the source give for `Cc1noc(C)c1S(=O)(=O)Nc1ccc2c(c1)CC(=O)N([C@H](C)CO)C[C@H](C)[C@H](CN(C)S(=O)(=O)c1ccccc1)O2` here?
Answer: 3.77% (inactive)

Question: For `CN(CCC(=O)Nc1ccc(Br)cc1)Cc1ccccc1`, which activity change, negative = cytotoxicity is on record?
Answer: -5.93% (inactive)

Question: For `COc1ccc(OC)c2[nH]c(=O)c(CCNC(=O)C(=O)c3c(C)[nH]c4ccccc34)cc12`, which activity change, negative = cytotoxicity is on record?
Answer: -1.3% (inactive)

Question: With `COc1ccccc1NS(=O)(=O)c1cccc(C(=O)NCC2(N3CCCCC3)CCCCC2)c1` as the compound, how does the activity change, negative = cytotoxicity read?
Answer: -10.5% (inactive)

Question: Which activity change, negative = cytotoxicity does the source give for `CCOc1ncccc1C(=O)OCC(=O)Nc1ccc(C(C)C)cc1` here?
Answer: -7.86% (inactive)

Question: With `Cc1ccc(CN(c2ccc(C(=O)NCc3ccccn3)cc2)S(C)(=O)=O)cc1` as the compound, how does the activity change, negative = cytotoxicity read?
Answer: -10.4% (inactive)

Question: Which activity change, negative = cytotoxicity does the source give for `Cc1cc(NC(=O)CSc2[nH]c(=O)cc(C(F)(F)F)c2C#N)no1` here?
Answer: -3.53% (inactive)

Question: Which activity change, negative = cytotoxicity does the source give for `CN1CCN(C(=O)CSc2nnc(COc3ccc(Cl)cc3)o2)CC1` here?
Answer: -3.96% (inactive)

Question: Which activity change, negative = cytotoxicity does the source give for `CC(C)Cn1c(N)c(C(=O)COC(=O)c2ccc(O)cc2)c(=O)n(C)c1=O` here?
Answer: -14.4% (inactive)

Question: Which activity change, negative = cytotoxicity does the source give for `CCOC(=O)c1oc2cccc(O)c2c1CN(Cc1ccccc1)C(C)=O` here?
Answer: -17.2% (inactive)

Question: Which activity change, negative = cytotoxicity does the source give for `COc1cc2c(cc1OC)C1C(C(=O)Nc3ccccc3N3CCN(C)CC3)c3ccccc3C(=O)N1CC2` (stereo not drawn) here?
Answer: -11.8% (inactive)

Question: With `CNc1ncnc2c1ncn2[C@H]1CN(Cc2cccc3ccccc23)C[C@@H](CO)O1` as the compound, how does the activity change, negative = cytotoxicity read?
Answer: -19.8% (inactive)

Question: For `CCCCn1c(SCC(=O)Nc2ccc(C)c(S(=O)(=O)N3CCOCC3)c2)nnc1C(CC)N(C)C` (stereo not drawn), which activity change, negative = cytotoxicity is on record?
Answer: 1.22% (inactive)

Question: Which activity change, negative = cytotoxicity does the source give for `CCCn1nnnc1NC(=O)c1cccs1` here?
Answer: -5.77% (inactive)
